Measurements reported in patent US11447471B2, “α,β-unsaturated amide compound” (KYOWA KIRIN CO., LTD., priority 2017, dated 2022).

What was measured:
Assay type in all cases: cell-based
[1] = system: HuH28 cells; experiment: Cell growth inhibitory effect on human liver cancer cell line (cell counting kit 8, 6 days); conditions: 144 h; human liver cancer cell line HuH28, 6 days incubation
Text: (§1) NCI-H226 cells, a human mesothelioma cell line (ATCC, CRL-5826), NCI-H322 cells, a human lung cancer cell line (the European Collection of Authenticated Cell Cultures, 95111734), OUTOKO cells, a human ovarian cancer cell line (JCRB cell bank, KRB1048) and […] were each subcultured by keeping the cell density under 80% in a RPMI1640 culture medium with 10% fetal bovine serum (FBS). NCI-H226 cells, NCI-H322 cells and SSP-25 cells were each suspended in the RPMI1640 culture medium mentioned above, and plated to a 96-well flat-bottom plate at 500 cells/well in each well, and incubated at 37° C. in an incubator with 5% CO2 for one day. After the incubation, the evaluation of cell growth inhibitory activity was started. OVTOKO cells were suspended in the RPMI1640 culture medium mentioned above, and plated to a 96-well flat-bottom plate at 250 cells/well in each well, and incubated it at 37° C. in an incubator with 5% CO2 for one day. After the incubation, the evaluation of the cell growth inhibitory activity was started. The next day, a test compound was serially diluted to 5 times of its final concentration in the RPM11640 culture medium mentioned above, and the diluted solution was added to each well. In this case, the final concentration of DMSO in each well was adjusted to 0.1%. After the test compound was added, cells were incubated at 37° C. in an incubator with 5% CO2 for 6 days. At the addition of the test compound and 6 days after the addition, the cell counting measurement was performed using a cell counting kit 8 (made by DOJINDO) according to a protocol equivalent to DOJINDO's recommendation. A reagent contained in the kit was added to each plate and color reaction was performed for 2 or 3 hours at 37° C. in an incubator with 5% CO2. After the reaction, an absorbance at wavelength of 450 nm was measured using a microplate reader. A growth inhibition rate was calculated according to the following formula, from which the concentration of a test compound at which cell growth was inhibited by 50% (GI50 value) was determined.

[2] = system: NCI-H226 cells; experiment: Cell growth inhibitory effect on human mesothelioma cell line (cell counting kit 8, 6 days); conditions: NCI-H226, 144 h
Text: as §1

[3] = system: NCI-H322 cells; experiment: Cell growth inhibitory effect on human lung cancer cell line (cell counting kit 8, 6 days); conditions: 144 h; human lung cancer cell line NCI-H322, 6 days incubation
Text: as §1

[4] = system: OVTOKO cells; experiment: Cell growth inhibitory effect on human ovarian cancer cell line (cell counting kit 8, 6 days); conditions: 144 h, 6 days incubation
Text: as §1

Row | GI50 [1] | GI50 [2] | GI50 [3] | GI50 [4] | SMILES
1 | < 3 µM | < 0.1 µM | < 1 µM | ≤ 3 µM | C=CC(=O)N[C@@H]1CC[C@H](Oc2ccc(C(F)(F)F)cc2)c2nc(OC)ccc21 (relative stereo) [Compound 179, cis-N-[2-Methoxy-8-{4-(trifluoromethyl)phenoxy}-5,6,7,8-tetrahydroquinolin-5-yl]acrylamide]
2 | – | < 0.1 µM | < 1 µM | ≤ 3 µM | C=CC(=O)N[C@@H]1CC[C@H](Oc2ccc(C(F)(F)F)cc2)c2nc(C)ccc21 (relative stereo) [Compound 184, cis-N-[2-Methyl-8-{4-(trifluoromethyl)phenoxy}-5,6,7,8-tetrahydroquinolin-5-yl]acrylamide]
3 | < 3 µM | < 0.1 µM | < 1 µM | ≤ 3 µM | C=CC(=O)N[C@@H]1CC[C@H](Oc2ccc(C(F)(F)F)cc2)c2nc(C3CC3)ccc21 (relative stereo) [Compound 185, cis-N-[2-Cyclopropyl-8-{4-(trifluoromethyl)phenoxy}-5,6,7,8-tetrahydroquinolin-5-yl]acrylamide]
4 | < 3 µM | < 0.1 µM | < 1 µM | ≤ 3 µM | C=CC(=O)N[C@@H]1CC[C@H](Oc2ccc(C(F)(F)F)c(F)c2)c2nc(Cl)ccc21 (relative stereo) [Compound 187, cis-N-[2-Chloro-8-{3-fluoro-4-(trifluoromethyl)phenoxy}-5,6,7,8-tetrahydroquinolin-5-yl]acrylamide]
5 | < 3 µM | < 0.1 µM | < 1 µM | ≤ 3 µM | C=CC(=O)N[C@@H]1CC[C@H](Oc2ccc(C(F)(F)F)cn2)c2nc(Cl)ccc21 (relative stereo) [Compound 189, cis-N-(2-Chloro-8-[{5-(trifluoromethyl)pyridin-2-yl}oxy]-5,6,7,8-tetrahydroquinolin-5-yl)acrylamide]
6 | < 3 µM | < 0.1 µM | < 1 µM | ≤ 3 µM | C=CC(=O)NC1CC[C@H](Oc2cccc(Cl)c2)c2ncccc21 (stereo in doubt) [Compound 68, cis-N-{8-(3-Chlorophenoxy)-5,6,7,8-tetrahydroquinolin-5-yl}acrylamide]
7 | – | < 0.1 µM | < 1 µM | ≤ 3 µM | C=CC(=O)NC1CC[C@H](Oc2ccc(Cl)cc2)c2nc(Cl)ccc21 (stereo in doubt) [Compound 70, cis-N-{2-Chloro-8-(4-chlorophenoxy)-5,6,7,8-tetrahydroquinolin-5-yl}acrylamide]
8 | – | < 0.1 µM | < 1 µM | ≤ 3 µM | C=CC(=O)NC1CC[C@H](Oc2ccc(Cl)cc2)c2nc(OC)ccc21 (stereo in doubt) [Compound 71, cis-N-{8-(4-Chlorophenoxy)-2-methoxy-5,6,7,8-tetrahydroquinolin-5-yl}acrylamide]
9 | – | < 0.1 µM | < 1 µM | ≤ 3 µM | C=CC(=O)NC1CC[C@H](Oc2ccc(C(F)(F)F)cc2)c2nc(Cl)ccc21 (stereo in doubt) [Compound 76, cis-N-[2-Chloro-8-{4-(trifluoromethyl)phenoxy}-5,6,7,8-tetrahydroquinolin-5-yl]acrylamide]
10 | – | < 0.1 µM | < 1 µM | ≤ 3 µM | C=CC(=O)NC1CC[C@@H](Oc2ccc(C(F)(F)F)cc2)c2nc(Cl)ccc21 (stereo in doubt) [Compound 82, trans-N-[2-Chloro-8-{4-(trifluoromethyl)phenoxy}-5,6,7,8-tetrahydroquinolin-5-yl]acrylamide]
11 | – | – | < 1 µM | – | C=CC(=O)N[C@@H]1CC[C@H](Oc2ccc(C(F)(F)F)cc2)c2cnccc21 (stereo in doubt) [Compound 228, N-[8-{4-(Trifluoromethyl)phenoxy}-5,6,7,8-tetrahydroisoquinolin-5-yl]acrylamide]
12 | – | < 0.1 µM | < 1 µM | – | C=CC(=O)NCc1cc(Oc2ccc(C(F)(F)F)cc2)c2ncccc2c1 [Compound 214]
13 | < 3 µM | < 0.1 µM | < 1 µM | – | C=CC(=O)NCc1ccc(Oc2ccc(C(F)(F)F)cc2)c2nc(C(C)C)oc12 [Compound 245, N-([2-Isopropyl-4-{4-(trifluoromethyl)phenoxy}benzo[d]oxazol-7-yl]methyl)acrylamide]
14 | < 3 µM | 0.1 to 1 µM | < 1 µM | – | C=CC(=O)NCc1ccc(Oc2ccc(C(F)(F)F)cc2)c2nc(-c3ccccc3)oc12 [Compound 246, N-([2-Phenyl-4-{4-(trifluoromethyl)phenoxy}benzo[d]oxazol-7-yl]methyl) acrylamide]
15 | – | 0.1 to 1 µM | < 1 µM | – | C=CC(=O)NCc1ccc(Oc2ccc(C(F)(F)F)cc2)c2nc(C(F)(F)F)oc12 [Compound 248, N-([2-(Trifluoromethyl)-4-{4-(trifluoromethyl)phenoxy}benzo[d]oxazol-7-yl]methyl)acrylamide]
16 | < 3 µM | < 0.1 µM | < 1 µM | – | C=CC(=O)NCc1ccc(Oc2ccc(C(F)(F)F)nc2)c2nc(CC)oc12 [Compound 251, N-{(2-Ethyl-4-[{6-(trifluoromethyl)pyridin-3-yl}oxy]benzo[d]oxazol-7-yl)methyl}acrylamide]
17 | < 3 µM | < 0.1 µM | < 1 µM | – | C=CC(=O)NCc1ccc(Oc2ccc(C(F)(F)F)cn2)c2nc(CC)oc12 [Compound 252, N-{(2-Ethyl-4-[{5-(trifluoromethyl)pyridin-2-yl}oxy]benzo[d]oxazol-7-yl)methyl}acrylamide]
18 | < 3 µM | < 0.1 µM | < 1 µM | – | C=CC(=O)NCc1ccc(Oc2ccc(C(F)(F)F)cc2)c2oc(C)nc12 [Compound 253, N-([2-Methyl-7-{4-(trifluoromethyl)phenoxy}benzo[d]oxazol-4-yl]methyl)acrylamide]
19 | < 3 µM | < 0.1 µM | < 1 µM | – | C=CC(=O)NCc1ccc(Oc2ccc(C(F)(F)F)cc2)c2sc(C)nc12 [Compound 257, N-([2-Methyl-7-{4-(trifluoromethyl)phenoxy}benzo[d]thiazol-4-yl]methyl)acrylamide]
20 | – | 0.1 to 1 µM | < 1 µM | – | C=CC(=O)NC1CCOc2nc(Oc3ccc(C(F)(F)F)cc3)ccc21 (stereo not drawn) [Compound 259, N-[7-{4-(Trifluoromethyl)phenoxy}-3,4-dihydro-2H-pyrano[2,3-b]pyridin-4-yl]acrylamide]
21 | – | < 0.1 µM | < 1 µM | – | C=CC(=O)NC1COc2ccc(Oc3ccc(C(F)(F)F)cc3)cc21 (stereo not drawn) [Compound 262, N-[5-{4-(Trifluoromethyl)phenoxy}-2,3-dihydrobenzofuran-3-yl]acrylamide]
22 | – | < 0.1 µM | < 1 µM | – | C=CC(=O)NC1COc2c(Br)cc(Oc3ccc(C(F)(F)F)cc3)cc21 (stereo not drawn) [Compound 263, N-[7-Bromo-5-{4-(trifluoromethyl)phenoxy}-2,3-dihydrobenzofuran-3-yl]acrylamide]
23 | – | < 0.1 µM | < 1 µM | – | C=CC(=O)NC1COc2c(Oc3ccc(C(F)(F)F)cc3)cccc21 (stereo not drawn) [Compound 264, N-[7-{4-(Trifluoromethyl)phenoxy}-2,3-dihydrobenzofuran-3-yl]acrylamide]
24 | – | 0.1 to 1 µM | < 1 µM | – | C=CC(=O)NC1COc2cc(Oc3ccc(C(F)(F)F)cc3)ccc21 (stereo not drawn) [Compound 265, N-{6-[4-(Trifluoromethyl)phenoxy]-2,3-dihydrobenzofuran-3-yl}acrylamide]
25 | – | 0.1 to 1 µM | < 1 µM | – | C=CC(=O)NC1COc2cc(C)c(Oc3ccc(C(F)(F)F)cc3)cc21 (stereo not drawn) [Compound 266, N-{6-Methyl-5-[4-(trifluoromethyl)phenoxy]-2,3-dihydrobenzofuran-3-yl}acrylamide]
26 | < 3 µM | – | – | ≤ 3 µM | C=CC(=O)NCc1ccc(S(=O)(=O)c2ccc(C(F)(F)F)cc2)c2nc(C)oc12 [Compound 271, N-{(2-Methyl-4-[{4-(trifluoromethyl)phenyl}sulfonyl]benzo[d]oxazol-7-yl)methyl}acrylamide]
27 | < 3 µM | 0.1 to 1 µM | – | ≤ 3 µM | C=CC(=O)NCc1ccc(/C=C/c2ccc(C(F)(F)F)cc2)c2nc(C)oc12 [Compound 273, (E)-N-([2-Methyl-4-{4-(trifluoromethyl)styryl}benzo[d]oxazol-7-yl]methyl)acrylamide]
28 | < 3 µM | < 0.1 µM | – | ≤ 3 µM | C=CC(=O)NCc1ccc(OC2CCCCC2)c2nc(C)oc12 [Compound 276, N-[{4-(Cyclohexyloxy)-2-methylbenzo[d]oxazol-7-yl}methyl]acrylamide]
